One may read the Ki as the equilibrium dissociation constant of an inhibitor or competing ligand from its target.

Bridge positions count the residues as written; N and C are the ends. Square brackets hold non-standard residues; d marks the D form. Peptide text beside a SMILES is read from it. N(1-adamantyl)Gly = O=C(O)CNC12CC3CC(CC(C3)C1)C2; Cha = N[C@@H](CC1CCCCC1)C(=O)O; S5 = C=CCCC[C@](C)(N)C(=O)O; PEG2 = NCCOCCOCCC(=O)O

For data set [1], the target named is T1, PAS-B domain of human SRC-1 (residues 257–385) (Homo sapiens, UniProt Q15788).
T1 construct: PAS-B domain of human SRC-1 (residues 257–385); His6; made in house; host or cells: Rosetta E. coli
T1 sequence (Q15788 257-385): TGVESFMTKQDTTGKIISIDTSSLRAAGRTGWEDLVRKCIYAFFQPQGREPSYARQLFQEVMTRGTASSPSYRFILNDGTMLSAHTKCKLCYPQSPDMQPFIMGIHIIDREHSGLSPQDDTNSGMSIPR
The data set is described as follows: Competitive fluorescence polarization (FP) assay, fluorescein-labeled STAT-6 peptide binding to SRC-1. As to conditions: 100 nM fluorescein-labeled 15-mer STAT-6 peptide, 1 μM PAS-B domain of SRC-1, HEPES pH 7.4, SD from three independent experiments. The protocol:
A plasmid expressing the PAS-B domain of human SRC-1 (residues 257–385) tagged with His6 was provided by John A. Robinson (University of Zürich at Switzerland). It was transformed into Rosetta E. coli cells. SRC-1 protein purification was performed as described previously.
After incubating 100 nM of fluorescein-labeled 15-mer STAT-6 peptide with 1 μM of PAS-B domain of SRC-1 in a binding buffer (50 mM HEPES pH 7.4, 150 mM NaCl, 3.4 mM EDTA, and 0.01% Tween 20) in a black Greiner 384-well plate for 30 min, indicated concentrations of YL2 and YL2-HyT1 through YL2-HyT6 were added to each well. After incubation for another 1.5 h, fluorescence polarization was measured on a Tecan Infinite F200 Pro microplate reader (excitation wavelength: 485 nm, emission wavelength: 535 nm). The Ki values of the compounds in the competition assay were determined using the following equation [43]. (1) Ki=[I]50/[L]50/KD+[P]0/KD+1 where [I]50 is the concentration of the free inhibitor at 50% inhibition, KD is the dissociation constant of the protein–ligand complex, [L]50 is the concentration of the free labeled ligand at 50% inhibition, and [P]0 is the concentration of the free protein at 0% inhibition.
A general note: In fluorescence polarisation assays a small probe gives low polarisation when free and higher when bound to something large.

The nature of data set [2]: Circular dichroism (CD), calculated helicity. The data set is classed as physicochemical. As to conditions: 50 μM peptide in 30% PBS (pH 7.4) and 70% acetonitrile, calculated from CD spectra. Here is the method: Lyophilized compounds (YL2 and YL2-HyT1 through YL2-HyT6) were dissolved in 30% PBS (pH 7.4) and 70% acetonitrile solution to a final concentration of 50 μM. CD spectra were measured with a Jasco J-815 CD spectropolarimeter using a quartz cuvette (2 mm path length). These spectra were averages of five successive accumulations with a scan rate of 100 nm/min. Raw data were converted in terms of per-residue molar ellipticity (deg·cm^2·dmol^−1·residue^−1) as calculated per mole of amide groups present and normalized by the molar concentration of peptides. Smoothing and correction of background spectra were performed with Origin Pro 8.0 (OriginLab Corporation, Northampton, MA, USA). Then α-helical propensities of YL2 and YL2-HyT1 through YL2-HyT6 were calculated as previously reported.

Data set [3] has as its target T2, SRC-1 in MDA-MB-231 cells (Homo sapiens, UniProt Q15788).
T2 construct: endogenous in cells; host or cells: MDA-MB-231
Description: Immunoblot analysis of cellular SRC-1 levels (SRC-1 degradation). The data set is classed as cell-based. As to conditions: MDA-MB-231 cells, 18 h; for SRC-1 (%): normalized to GAPDH and DMSO controls. Here is the method:
MDA-MB-231 and HEK293T cells were cultured in a medium containing Dulbecco’s modified eagle medium (DMEM) supplemented with 1% penicillin–streptomycin (PS) and 10% FBS with 5% CO2 at 37 °C.
MDA-MB-231 cells were seeded into 6-well pates (Corning, 3506) at a density of 6 × 10^5 cell per well. After incubation at 37 °C for 24 h, cells were treated with synthesized compounds in Opti-MEM medium for 12, 18, or 24 h. Cells were washed twice with cold Dulbecco’s phosphate-buffered saline (DPBS) prior to cell lysis using a cell lysis buffer (1% Triton X-100, 150 mM NaCl, 50 mM Tris-HCl pH 7.6, 0.1% SDS, 0.5% sodium deoxycholate, and 1 × protease inhibitor cocktail) on ice. Cell lysates were centrifuged at 13,000 rpm at 4 °C for 15 min. The supernatant was collected, and protein concentration was determined using Pierce^TM 660nm protein assay. A 6 × SDS loading buffer was added to the cell lysate and incubated at 95 °C for 5 min. The same amount of protein was subjected to SDS-PAGE and transferred to PVDF membranes. After blocking membranes with 5% skim milk in TBST (Tris-buffered saline with 0.05% Tween 20), membranes were incubated with a primary antibody at 4 °C overnight. Membranes were then incubated with HRP-linked secondary antibody at rt for 1 h and developed with Pico ECL solution. In MG-132 and 17-AAG treatment experiments, MDA-MB-231 cells were cotreated with synthesized compounds and MG-132 (5 μM) or 17-AAG (1 μM) at 37 °C for 18 h.
Background: In western blotting, separated proteins are transferred to a membrane and probed.

The subject of data set [4] is CSF-1 mRNA in MDA-MB-231 cells. The data set is described as follows: RT-qPCR of CSF-1 mRNA. The data set is classed as cell-based, human. Particulars: 18 h, RT-qPCR normalized to 18S. Here is the method: (§1) Quantitative real-time PCR was performed for CSF-1, E-cadherin, and 18S (as a reference gene) mRNAs. MDA-MB-231 cells (1.2 × 10^5 cells/well) were seeded into a 12-well plate and incubated at 37 °C with 5% CO2 for 24 h. These cells were treated with indicated compounds (YL2, adamantane, ND1-YL2, or YL2-HyT6) for 18 h in Opti-MEM medium. After cells were washed with cold DPBS, mRNAs were isolated from these cells using an AccuPrep Universal RNA extraction kit (Bioneer, Daejeon, Korea). Then 1.5 µg of mRNAs were reverse-transcribed using AccuPower RocketScript Cycle RT PreMix (Bioneer) to generate complementary DNAs. RT-qPCR for CSF-1, E-cadherin, and 18S was performed with a StepOnePlus Real-Time PCR System (Applied Biosystems, Waltham, MA, USA) and SYBR Green mix (Applied Biosystems) according to the manufacturer’s instructions with gene-specific primers (Table 1).
A general note: Quantitative PCR measures a nucleic acid by following its amplification.

Data set [5] concerns E-cadherin mRNA in MDA-MB-231 cells. The data set is described as follows: RT-qPCR of E-cadherin mRNA. The data set is classed as cell-based, human. As to conditions: 18 h, RT-qPCR normalized to 18S. The protocol:
as §1

The target of data set [6] is SRC-1. Particulars: in vitro binding activity; cited from earlier work. From the text:
The SRC-1 degrader ND1-YL2 is a chimeric molecule composed of a ligand (YL2) for SRC-1 [31] and a UBR E3 ligase binder (Figure 2). […] ND1-YL2 was generated by conjugating a tetrapeptide RLAA, the N-degron peptide as a binder for UBR. Thus, this bifunctional molecule enables the recruitment of SRC-1 to UBR protein, thereby promoting the formation of a ternary complex for polyubiquitination and proteasomal degradation of SRC-1.

Data set [7] has as its system SRC-1. As to conditions: stapled peptide lacking the hydrophobic tag; cited from earlier work. Here is the method: Cellular levels of SRC-1 were analyzed at various time points (12, 18, and 24 h) by immunoblotting.
On the set-up of data set [8]: method as in PMID 29090910. As to conditions: compared with the corresponding native peptide sequence; cited from earlier work.
On the set-up of data set [9]: method as in PMID 29090910. Particulars: cited from earlier work.

T2 sequence (Q15788 whole entry): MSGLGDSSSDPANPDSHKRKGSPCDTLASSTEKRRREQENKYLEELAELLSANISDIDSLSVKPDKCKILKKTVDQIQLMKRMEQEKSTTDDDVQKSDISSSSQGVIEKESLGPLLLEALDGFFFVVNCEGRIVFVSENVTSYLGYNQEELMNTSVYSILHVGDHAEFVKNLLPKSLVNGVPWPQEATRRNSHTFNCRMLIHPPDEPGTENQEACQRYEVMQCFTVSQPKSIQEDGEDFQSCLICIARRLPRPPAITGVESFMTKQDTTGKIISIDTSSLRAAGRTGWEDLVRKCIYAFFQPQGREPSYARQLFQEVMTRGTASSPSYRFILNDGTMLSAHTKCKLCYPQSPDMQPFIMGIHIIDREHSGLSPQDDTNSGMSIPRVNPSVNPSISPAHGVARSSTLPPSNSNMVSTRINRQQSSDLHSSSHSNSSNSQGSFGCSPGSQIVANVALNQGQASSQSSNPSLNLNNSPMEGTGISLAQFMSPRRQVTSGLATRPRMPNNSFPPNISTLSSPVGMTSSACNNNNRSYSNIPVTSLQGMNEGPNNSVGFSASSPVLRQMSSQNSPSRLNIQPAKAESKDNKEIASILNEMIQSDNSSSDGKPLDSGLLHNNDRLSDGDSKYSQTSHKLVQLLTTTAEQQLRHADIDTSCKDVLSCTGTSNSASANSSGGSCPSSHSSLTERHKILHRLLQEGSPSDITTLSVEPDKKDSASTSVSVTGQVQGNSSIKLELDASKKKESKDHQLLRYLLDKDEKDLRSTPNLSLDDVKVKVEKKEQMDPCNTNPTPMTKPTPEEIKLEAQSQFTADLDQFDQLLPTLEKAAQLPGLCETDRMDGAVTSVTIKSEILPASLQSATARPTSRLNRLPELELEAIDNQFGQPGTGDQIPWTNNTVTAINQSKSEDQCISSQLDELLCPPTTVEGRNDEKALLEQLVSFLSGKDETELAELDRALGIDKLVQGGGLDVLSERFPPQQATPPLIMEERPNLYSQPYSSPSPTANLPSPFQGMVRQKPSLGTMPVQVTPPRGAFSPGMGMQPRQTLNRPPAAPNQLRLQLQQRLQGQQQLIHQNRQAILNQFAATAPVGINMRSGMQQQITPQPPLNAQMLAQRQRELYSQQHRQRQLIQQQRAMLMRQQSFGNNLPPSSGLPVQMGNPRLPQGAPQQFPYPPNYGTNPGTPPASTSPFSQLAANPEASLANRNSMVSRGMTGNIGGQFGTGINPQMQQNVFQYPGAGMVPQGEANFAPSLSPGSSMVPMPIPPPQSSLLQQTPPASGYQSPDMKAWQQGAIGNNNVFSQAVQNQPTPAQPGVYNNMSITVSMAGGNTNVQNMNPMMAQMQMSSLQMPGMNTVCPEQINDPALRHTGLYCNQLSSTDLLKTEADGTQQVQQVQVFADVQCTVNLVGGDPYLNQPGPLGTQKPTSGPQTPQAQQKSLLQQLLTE

`CC(C)C[C@H](NC(=O)CCOCCOCCNC(=O)CNC12CC3CC(CC(C3)C1)C2)C(=O)N[C@@H](CC(C)C)C(=O)N1CCC[C@H]1C(=O)N1CCC[C@H]1C(=O)N[C@H](C(=O)N[C@@H](CCC(=O)O)C(=O)N[C@@H](CCC(N)=O)C(=O)N[C@@H](CC(=O)O)C(=O)N[C@@H](CC(C)C)C(=O)N[C@@]1(C)CCC/C=C\CCC[C@@](C)(C(=O)N[C@@H](Cc2ccc(O)cc2)C(N)=O)NC(=O)[C@H](CC2CCCCC2)NC(=O)[C@H](CC(C)C)NC(=O)[C@H](CCCCN)NC1=O)[C@@H](C)O` [YL2-HyT5] (H-[N(1-adamantyl)Gly][PEG2]LLPPTEQDL[S5]KL[Cha][S5]Y-NH2; staple (Z) 12-16; C-terminus assumed): the Ki in data set [1] was found to be 0.549 ± 0.017 µM. Moreover, in data set [2], the “Helicity (%)” value is reported as 27.2%. Also, the “SRC-1 (%)” value was found to be 78% in data set [3] (10 μM compound), 95% in [3] (20 μM compound) and 57% in [3] (50 μM compound).

`CC(C)C[C@@H]1NC(=O)[C@H](CCCCN)NC(=O)[C@@](C)(NC(=O)[C@H](CC(C)C)NC(=O)[C@H](CC(=O)O)NC(=O)[C@H](CCC(N)=O)NC(=O)[C@H](CCC(=O)O)NC(=O)[C@@H](NC(=O)[C@@H]2CCCN2C(=O)[C@@H]2CCCN2C(=O)[C@H](CC(C)C)NC(=O)[C@@H](N)CC(C)C)[C@@H](C)O)CCC/C=C\CCC[C@@](C)(C(=O)N[C@@H](Cc2ccc(O)cc2)C(N)=O)NC(=O)[C@H](CC2CCCCC2)NC1=O` [YL2] (H-LLPPTEQDL[S5]KL[Cha][S5]Y-NH2; staple (Z) 10-14; N-terminus assumed): in data set [2], the “Helicity (%)” value is listed as 32.5%. Further, in data set [4], the “CSF-1 mRNA expression level” value is given as “no effect”. The “E-cadherin mRNA expression level” value in [5] is on record as “no effect”. The Ki on SRC-1 [6] was 0.14 µM. In addition, the SRC-1 degradation result in the data set with SRC-1 [7] was “unable to induce SRC-1 degradation”. In addition, the Proteolytic resistance result in data set [8] is “increased proteolytic resistance”. Also, the Cell penetration ability entry in [9] is recorded as “reasonable cell penetration ability”.

With `C1C2CC3CC1CC(C2)C3` [adamantane], in data set [3] (20 μM), the “SRC-1 degradation (immunoblot)” value is given as “no effect”. Also, the “CSF-1 mRNA expression level” value in data set [4] is given as “no effect”. The “E-cadherin mRNA expression level” value in data set [5] is given as “no effect”.

Source of the values: article PMC8232704, “Hydrophobic Tagging-Mediated Degradation of Transcription Coactivator SRC-1” (International Journal of Molecular Sciences, 2021).
